# Measured values from ChEMBL document CHEMBL1201862, “PubChem BioAssay data set” (2004).
# Activity calls are given as the source filed them.
# Assays:
# Vasopressin V1a receptor = Vasopressin V1a receptor (Homo sapiens, UniProt P37288); test: Counterscreen for Oxytocin Receptor (OXTR) agonists: Fluorescence-based cell-based high throughput dose response assay to identify agonists of the vasopressin 1 receptor (V1R). [Related pubchem assays: 2435 (Primary screen (OXTR agonists in singlicate)), 434991 (Counterscreen (V1R agonists in triplicate)), 2482 (Summary (OXTR agonists)) …; assay type: functional
# Sequence of Vasopressin V1a receptor (P37288 whole entry): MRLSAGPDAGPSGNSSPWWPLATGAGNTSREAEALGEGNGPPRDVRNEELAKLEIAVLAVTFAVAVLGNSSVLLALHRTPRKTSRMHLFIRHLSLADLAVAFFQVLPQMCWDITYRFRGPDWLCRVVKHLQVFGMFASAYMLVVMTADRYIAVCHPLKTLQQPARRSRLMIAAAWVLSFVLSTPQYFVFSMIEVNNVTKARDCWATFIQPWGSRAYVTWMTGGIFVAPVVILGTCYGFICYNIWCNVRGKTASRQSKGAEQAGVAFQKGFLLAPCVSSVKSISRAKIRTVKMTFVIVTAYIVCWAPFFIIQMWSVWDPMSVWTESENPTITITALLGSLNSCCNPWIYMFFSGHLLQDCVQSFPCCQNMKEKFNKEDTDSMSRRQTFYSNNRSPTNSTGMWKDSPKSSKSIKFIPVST
# Oxytocin receptor = Oxytocin receptor (Homo sapiens, UniProt P30559); test: Fluorescence-based cell-based high throughput dose response assay for agonists of the Oxytocin Receptor (OXTR). [Related pubchem assays: 2435 (Primary screen (OXTR agonists in singlicate)), 434991 (Counterscreen (V1R agonists in triplicate)), 2482 (Summary (OXTR agonists)), 434963 (Confirmation screen (OXTR agonists in triplicate))]; assay type: functional
# Sequence of Oxytocin receptor (P30559 whole entry): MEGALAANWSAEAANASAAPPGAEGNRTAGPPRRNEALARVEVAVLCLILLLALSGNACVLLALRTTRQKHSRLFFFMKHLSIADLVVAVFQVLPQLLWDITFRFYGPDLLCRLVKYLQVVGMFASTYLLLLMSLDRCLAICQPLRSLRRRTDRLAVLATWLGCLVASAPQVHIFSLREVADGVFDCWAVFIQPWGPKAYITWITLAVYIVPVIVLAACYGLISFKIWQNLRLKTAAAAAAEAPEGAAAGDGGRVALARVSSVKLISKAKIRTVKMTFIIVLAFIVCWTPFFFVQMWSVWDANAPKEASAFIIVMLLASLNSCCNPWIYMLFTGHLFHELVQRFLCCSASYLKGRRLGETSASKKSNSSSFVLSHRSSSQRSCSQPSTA
# Vero = test: cells; assay type: functional; details: Chlorocebus sabaeus
# [1] = biological target: Mothers against decapentaplegic homolog 3 (Homo sapiens, UniProt P84022); test: blockers of Smad3 complex formation in lysate – cell lysate, secondary confirmation, chemiluminescent ELISA, HEK293 lysate, dose response (AID 1058); assay type: functional
# Sequence of Mothers against decapentaplegic homolog 3 (P84022 whole entry): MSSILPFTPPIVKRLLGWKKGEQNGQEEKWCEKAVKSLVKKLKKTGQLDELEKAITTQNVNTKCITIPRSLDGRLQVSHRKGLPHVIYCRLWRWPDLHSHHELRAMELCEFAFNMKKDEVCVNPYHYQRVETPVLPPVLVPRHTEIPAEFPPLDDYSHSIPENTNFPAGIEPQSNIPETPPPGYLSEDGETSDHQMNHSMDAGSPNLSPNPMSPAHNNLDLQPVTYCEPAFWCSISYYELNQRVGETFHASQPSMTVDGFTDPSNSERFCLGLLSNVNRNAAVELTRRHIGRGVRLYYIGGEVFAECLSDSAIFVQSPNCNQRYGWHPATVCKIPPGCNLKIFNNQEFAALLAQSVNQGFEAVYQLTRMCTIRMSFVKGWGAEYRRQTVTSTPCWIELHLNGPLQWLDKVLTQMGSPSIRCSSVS
# [2] = biological target: T1, Neuropeptide Y receptor type 1 (Homo sapiens, UniProt P25929); assay type: functional;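 note: HEK293 cells with a CNG channel challenged with NPY then isoproterenol; potency as antagonist that reverses NPY suppression of cAMP signal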
# T1 sequence (P25929 whole entry): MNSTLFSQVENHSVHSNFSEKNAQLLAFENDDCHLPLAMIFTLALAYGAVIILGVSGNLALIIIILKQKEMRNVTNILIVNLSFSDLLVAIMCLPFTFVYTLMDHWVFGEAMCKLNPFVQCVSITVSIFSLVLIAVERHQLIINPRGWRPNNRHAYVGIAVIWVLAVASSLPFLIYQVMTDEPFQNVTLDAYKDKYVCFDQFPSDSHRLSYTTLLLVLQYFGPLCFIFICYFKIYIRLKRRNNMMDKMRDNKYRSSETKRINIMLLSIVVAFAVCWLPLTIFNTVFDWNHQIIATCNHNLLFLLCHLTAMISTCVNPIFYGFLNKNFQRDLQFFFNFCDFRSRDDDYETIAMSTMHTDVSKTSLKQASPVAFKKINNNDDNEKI
# [3] = biological target: T2, Neuropeptide Y receptor type 2 (Homo sapiens, UniProt P49146); assay type: functional, cell-based;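 note: HEK293 cells expressing the receptor and a CNG channel; stimulus was NPY near EC95 followed by isoproterenol to raise cAMP; antagonist potency measured as restoring cAMP signal that NPY suppresses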
# T2 sequence (P49146 whole entry): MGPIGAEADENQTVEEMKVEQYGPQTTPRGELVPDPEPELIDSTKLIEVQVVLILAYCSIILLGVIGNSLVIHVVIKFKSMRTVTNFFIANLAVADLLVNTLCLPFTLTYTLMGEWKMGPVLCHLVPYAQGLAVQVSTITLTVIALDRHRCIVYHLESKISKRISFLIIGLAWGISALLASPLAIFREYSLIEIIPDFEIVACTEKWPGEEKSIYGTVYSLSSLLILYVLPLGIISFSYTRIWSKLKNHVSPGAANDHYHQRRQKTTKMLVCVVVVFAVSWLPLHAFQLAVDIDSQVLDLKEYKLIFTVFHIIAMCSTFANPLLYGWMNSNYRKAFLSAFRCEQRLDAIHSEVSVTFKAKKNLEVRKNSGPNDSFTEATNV
# [4] = antiviral protection against BTV-induced cell death – arbovirus, BSR cells, confirmation (AID 1250); assay type: functional;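 note: protection from viral cytopathic effect measured as cell viability by ATP luminescence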
# H9c2 = test: cells; assay type: functional, cell-based; details: Rattus norvegicus, H9c2, Myocardium;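 note: confirmatory concentration-response retest of ultra-high-throughput screening hits for modulation of myocardial damage; cell death induced by hydrogen peroxide oxidative stress; compound pretreatment for 60 min then peroxide exposure for 2 h; potency is for protecting the cells against peroxide damage rather than for killing them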
structure (smiles),measurement,setting,value
Cc1ccc(NS(=O)(=O)c2ccc(C(=O)NCC(c3ccco3)N3CCCCC3)cc2)cc1 (stereo not drawn),EC50,Vasopressin V1a receptor,> 29.9 µM (not active)
same,EC50,Oxytocin receptor,> 29.9 µM (not active)
same,CC50,Vero,> 25 µM (active)
CN(C)c1ccc(C(c2cc3c(cc2O)OCO3)N2CCOCC2)cc1 (stereo not drawn),IC50,[1],> 40 µM (not active)
O=C(N/N=C/c1ccco1)c1ccccc1OCc1ccc(Br)cc1,IC50,[2],5.34 µM (active)
same,IC50,[3],9.08 µM (active)
COc1ccc(-c2nc(NC(=O)c3ccc(OCC(=O)N4CCOCC4)c(OC)c3)sc2C)cc1,IC50,[4],83.5 µM (active)
same,IC50,H9c2,> 79 µM (inactive)
